Literature values, collected in patent US12465059B2, “Concentrated formic acid composition and its uses thereof” (priority 2018, dated 2025).

Columns and labels:
[1] = versus Acetic Acid, the second best strongest straight chain Organic Acid
Rat = settings: oral

| Structure (SMILES) | times stronger than Acetic Acid (acid strength) [1] [times] | LD 50 (Rat) [mg/kg] |
| --- | --- | --- |
| O=CO [Methanoic acid] | 10 | – |
| [Cl-].[Na+] [Sodium Chloride] | – | 3000 |
